Test results reported in BigSolDB 2.1.

CC(C)c1ccc2sc3ccccc3c(=O)c2c1
Settings | solubility (mole fraction)
in 1,2-dichloroethane, 306.25 K | 0.392
in 1,2-dichloroethane, 309.15 K | 0.424
in 1,2-dichloroethane, 311.25 K | 0.455
in 1,2-dichloroethane, 315.15 K | 0.486
in 1,2-dichloroethane, 318.15 K | 0.516
in 1,2-dichloroethane, 321.15 K | 0.546
in 1,2-dichloroethane, 324.65 K | 0.572
in 1,2-dichloroethane, 326.85 K | 0.615
in 1,4-dioxane, 307.15 K | 0.34
in 1,4-dioxane, 310.15 K | 0.381
in 1,4-dioxane, 314.05 K | 0.429
in 1,4-dioxane, 317.15 K | 0.475
in 1,4-dioxane, 320.05 K | 0.512
in 1,4-dioxane, 323.15 K | 0.543
in 1,4-dioxane, 326.65 K | 0.589
in 1,4-dioxane, 329.85 K | 0.637
in acetone, 299.15 K | 0.126
in acetone, 303.15 K | 0.167
in acetone, 307.15 K | 0.219
in acetone, 310.15 K | 0.266
in acetone, 314.25 K | 0.319
in acetone, 317.15 K | 0.358
in acetone, 320.15 K | 0.383
in acetone, 323.15 K | 0.417
in ethanol, 305.65 K | 0.0424
in ethanol, 307.95 K | 0.0493
in ethanol, 309.65 K | 0.0557
in ethanol, 312.15 K | 0.0703
in ethanol, 315.15 K | 0.1
in ethanol, 318.15 K | 0.154
in ethanol, 321.15 K | 0.26
in ethyl acetate, 305.25 K | 0.192
in ethyl acetate, 308.15 K | 0.24
in ethyl acetate, 311.65 K | 0.283
in ethyl acetate, 314.15 K | 0.325
in ethyl acetate, 317.05 K | 0.355
in ethyl acetate, 320.15 K | 0.409
in ethyl acetate, 323.65 K | 0.461
in ethyl acetate, 327.15 K | 0.511
in methanol, 299.15 K | 0.00556
in methanol, 302.15 K | 0.00643
in methanol, 305.15 K | 0.00761
in methanol, 308.15 K | 0.00911
in methanol, 311.15 K | 0.0113
in methanol, 314.15 K | 0.0145
in methanol, 317.15 K | 0.0196
in methanol, 320.15 K | 0.0264
in toluene, 304.65 K | 0.332
in toluene, 308.15 K | 0.374
in toluene, 311.65 K | 0.412
in toluene, 315.15 K | 0.453
in toluene, 318.15 K | 0.489
in toluene, 321.05 K | 0.526
